From patent US7579504B2, “ABCA1 elevating compounds” (Gilead Sciences, Inc., priority 2005, dated 2009)

Test system: ABCA1 mRNA
Assay: ABCA1 mRNA induction in THP-1 cells, QuantiGene branched DNA assay
Assay type: cell-based
Settings: 18-20 hours; for fold induction at 10 µM: Homo sapiens, read-out: ABCA1 Induction Fold Increase over DMSO Vehicle
Protocol: Modulation of expression of ABCA1 mRNA levels by the compounds of the invention was determined in the following assays.
Induction of ABC1 in THP-1 cells, was measured using QuantiGene® branched DNA assay as per manufacturer's instructions. Cultures of THP-1 were grown to subconfluence in DMEM/10% FBS before replacement with DMEM/BSA and 10 and 3 μM concentrations of the test compounds in DMSO for 18-20 hours. After treatment of cells with compounds, the cells were lysed with lysis buffer at 37° C. for 20 minutes. The cell lysate and ABCA1 specific probe (Genospectra, Inc., Fremont, Calif.) mix were added to the 96 well capture plate and hybridized at 53° C. for 16-18 hours. The signal was amplified using the amplifier and label probes provided with the QuantiGene® assay followed by addition of a luminescent alkaline phosphatase substrate, dioxitane. Luminescence was quantified in Victor V plate reader.
Step 1 • Cells are lysed to release mRNA in the presence of target probes. Target mRNA from lysed cells was then captured by hybridization and transferred to the Capture Plate.
Step 2 • Signal amplification was performed by hybridization of the bDNA Amplifier and Label Probe.
Step 3 • Addition of chemiluminescence substrate yielded a QuantiGene® signal proportional to the amount of mRNA present in the sample.
Table 1 presents the relative fold increase in ABCA1 expression over DMSO for compounds of the invention when tested at a concentration of 10 μM.

| Compound | fold induction at 10 µM | ABCA1 Induction Fold Increase over DMSO Vehicle (10 μM) [fold] |
| --- | --- | --- |
| Cc1ccc(CNC(=O)C2CCC(CN(Cc3ccccc3)S(=O)(=O)c3cc(Cl)cc(Cl)c3)CC2)cc1 (stereo not drawn) [Compound 32, [4-({[(3,5-dichlorophenyl)sulfonyl]benzylamino}methyl)cyclohexyl]-N-[(4-methylphenyl)methyl]carboxamide] | 4 | – |
| Cc1ccc(CNC(=O)C2CCC(CN(Cc3ccccc3)S(=O)(=O)c3cccc(C(F)(F)F)c3)CC2)cc1 (stereo not drawn) [Compound 36, N-[(4-methylphenyl)methyl]{4-[(benzyl{[3-(trifluoromethyl)phenyl]sulfonyl}amino)methyl]cyclohexyl}carboxamide] | 2.7 | – |
| Cc1ccc(CNC(=O)C2CCC(CN(Cc3ccccc3)S(=O)(=O)c3ccc(F)c(F)c3F)CC2)cc1 (stereo not drawn) [Compound 16, N-[(4-methylphenyl)methyl][4-({benzyl[(2,3,4-trifluorophenyl)sulfonyl]amino}methyl)cyclohexyl]carboxamide] | 1.9 | – |
| Cc1ccc(CNC(=O)C2CCC(CN(Cc3ccccc3)S(=O)(=O)c3cc(F)ccc3F)CC2)cc1 (stereo not drawn) [Compound 19, [4-({[(2,5-difluorophenyl)sulfonyl]benzylamino}methyl)cyclohexyl]-N-[(4-methylphenyl)methyl]carboxamide] | 4.9 | – |
| Cc1ccc(CNC(=O)C2CCC(CN(Cc3ccccc3)S(=O)(=O)c3ccc(Cl)cc3)CC2)cc1 (stereo not drawn) [Compound 44, [4-({[(4-chlorophenyl)sulfonyl]benzylamino}methyl)cyclohexyl]-N-[(4-methylphenyl)methyl]carboxamide] | 3.2 | – |
| Cc1ccc(CNC(=O)C2CCC(CN(Cc3ccccc3)S(=O)(=O)c3cc(Cl)ccc3Cl)CC2)cc1 (stereo not drawn) [Compound 27, [4-({[(2,5-dichlorophenyl)sulfonyl]benzylamino}methyl)cyclohexyl]-N-[(4-methylphenyl)methyl]carboxamide] | 3.7 | – |
| Cc1ccc(CNC(=O)C2CCC(CN(Cc3ccccc3)S(=O)(=O)c3ccccc3)CC2)cc1 (stereo not drawn) [Compound 4, N-[(4-methylphenyl)methyl](4-{[benzyl(phenylsulfonyl)amino]methyl}cyclohexyl)carboxamide] | 3.8 | – |
| Cc1ccc(CNC(=O)[C@H]2CC[C@H](CN(Cc3ccccc3C)S(=O)(=O)c3ccccc3)CC2)cc1 [Compound 1, N-[(4-methylphenyl)methyl][4-({[(2-methylphenyl)methyl](phenylsulfonyl)amino}methyl)cyclohexyl]carboxamide] | 4.2 | – |
| Cc1ccc(CNC(=O)C2CCC(CN(Cc3ccccc3)S(=O)(=O)c3ccccc3C)CC2)cc1 (stereo not drawn) [Compound 9, N-[(4-methylphenyl)methyl][4-({[(2-methylphenyl)sulfonyl]benzylamino}methyl)cyclohexyl]carboxamide] | 4.9 | – |
| Cc1ccc(CNC(=O)C2CCC(CN(Cc3ccccc3)S(=O)(=O)c3ccc4ccccc4c3)CC2)cc1 (stereo not drawn) [Compound 41, N-[(4-methylphenyl)methyl](4-{[(2-naphthylsulfonyl)benzylamino]methyl}cyclohexyl)carboxamide] | 5.2 | – |
| COc1cccc(S(=O)(=O)N(Cc2ccccc2)CC2CCC(C(=O)NCc3ccc(C)cc3)CC2)c1 (stereo not drawn) [Compound 7, [4-({[(3-methoxyphenyl)sulfonyl]benzylamino}methyl)cyclohexyl]-N-[(4-methylphenyl)methyl]carboxamide] | 5.4 | – |
| Cc1ccc(CNC(=O)C2CCC(CN(Cc3ccccc3)S(=O)(=O)c3ccc(-c4ccccc4)cc3)CC2)cc1 (stereo not drawn) [Compound 48, N-[(4-methylphenyl)methyl][4-({benzyl[(4-phenylphenyl)sulfonyl]amino}methyl)cyclohexyl]carboxamide] | 2.9 | – |
| Cc1ccc(CNC(=O)C2CCC(CN(Cc3ccccc3)S(=O)(=O)c3ccc(F)cc3C)CC2)cc1 (stereo not drawn) [Compound 33, [4-({[(4-fluoro-2-methylphenyl)sulfonyl]benzylamino}methyl)cyclohexyl]-N-[(4-methylphenyl)methyl]carboxamide] | 4.1 | – |
| Cc1ccc(CNC(=O)C2CCC(CN(Cc3ccccc3)S(=O)(=O)c3c(C)cc(C)cc3C)CC2)cc1 (stereo not drawn) [Compound 34, N-[(4-methylphenyl)methyl][4-({benzyl[(2,4,6-trimethylphenyl)sulfonyl]amino}methyl)cyclohexyl]carboxamide] | 2.1 | – |
| Cc1ccc(CNC(=O)[C@H]2CC[C@H](CN([C@@H](C)c3ccccc3)S(=O)(=O)c3ccccc3)CC2)cc1 [Compound 6, (4-{[((1S)-1-phenylethyl)(phenylsulfonyl)amino]methyl}cyclohexyl)-N-[(4-methylphenyl)methyl]carboxamide] | 3.2 | – |
| Cc1ccc(CNC(=O)C2CCC(CN(Cc3ccccc3)S(=O)(=O)c3ccccc3Cl)CC2)cc1 (stereo not drawn) [Compound 22, [4-({[(2-chlorophenyl)sulfonyl]benzylamino}methyl)cyclohexyl]-N-[(4-methylphenyl)methyl]carboxamide] | 4.1 | – |
| CC(=O)Nc1ccc(S(=O)(=O)N(Cc2ccccc2)CC2CCC(C(=O)NCc3ccc(C)cc3)CC2)cc1 (stereo not drawn) [Compound 8, N-[4-({[(4-{N-[(4-methylphenyl)methyl]carbamoyl}cyclohexyl)methyl]benzylamino}sulfonyl)phenyl]acetamide] | 3.1 | – |
| Cc1ccc(CNC(=O)C2CCC(CN(Cc3ccccc3)S(=O)(=O)c3c(F)c(F)c(F)c(F)c3F)CC2)cc1 (stereo not drawn) [Compound 37, N-[(4-methylphenyl)methyl][4-({[(2,3,4,5,6-pentafluorophenyl)sulfonyl]benzylamino}methyl)cyclohexyl]carboxamide] | 3 | – |
| Cc1ccc(CNC(=O)C2CCC(CN(Cc3ccccc3)S(=O)(=O)c3ccc(Cl)c(Cl)c3)CC2)cc1 (stereo not drawn) [Compound 42, [4-({[(3,4-dichlorophenyl)sulfonyl]benzylamino}methyl)cyclohexyl]-N-[(4-methylphenyl)methyl]carboxamide] | 2.6 | – |
| Cc1ccc(CNC(=O)C2CCC(CN(Cc3ccccc3)S(=O)(=O)c3ccc(Cl)cc3Cl)CC2)cc1 (stereo not drawn) [Compound 14, [4-({[(2,4-dichlorophenyl)sulfonyl]benzylamino}methyl)cyclohexyl]-N-[(4-methylphenyl)methyl]carboxamide] | 3.5 | – |
| N-[(4-methylphenyl)methyl](4-{[(naphthylsulfonyl)benzylamino]methyl}cyclohexyl)carboxamide [Compound 38] | – | 5.0 |
| Cc1ccc(CNC(=O)C2CCC(CN(Cc3ccccc3)S(=O)(=O)c3ccc(F)c(F)c3)CC2)cc1 (stereo not drawn) [Compound 12, [4-({[(3,4-difluorophenyl)sulfonyl]benzylamino}methyl)cyclohexyl]-N-[(4-methylphenyl)methyl]carboxamide] | 2.6 | – |
| Cc1ccc(CNC(=O)C2CCC(CN(Cc3ccccc3)S(=O)(=O)c3ccc(C)cc3)CC2)cc1 (stereo not drawn) [Compound 43, N-[(4-methylphenyl)methyl][4-({[(4-methylphenyl)sulfonyl]benzylamino}methyl)cyclohexyl]carboxamide] | 5.4 | – |
| Cc1ccc(CNC(=O)C2CCC(CN(Cc3ccccc3)S(=O)(=O)c3ccc(F)cc3F)CC2)cc1 (stereo not drawn) [Compound 10, [4-({[(2,4-difluorophenyl)sulfonyl]benzylamino}methyl)cyclohexyl]-N-[(4-methylphenyl)methyl]carboxamide] | 2.2 | – |
| Cc1ccc(CNC(=O)C2CCC(CN(Cc3ccccc3)S(=O)(=O)c3ccc(F)c(Cl)c3)CC2)cc1 (stereo not drawn) [Compound 40, [4-({[(3-chloro-4-fluorophenyl)sulfonyl]benzylamino}methyl)cyclohexyl]-N-[(4-methylphenyl)methyl]carboxamide] | 2.6 | – |
| Cc1ccc(CNC(=O)C2CCC(CN(Cc3ccc(F)cc3)S(=O)(=O)c3ccccc3)CC2)cc1 (stereo not drawn) [Compound 3, [4-({[(4-fluorophenyl)methyl](phenylsulfonyl)amino}methyl)cyclohexyl]-N-[(4-methylphenyl)methyl]carboxamide] | 4.8 | – |
| Cc1ccc(CNC(=O)C2CCC(CN(Cc3ccccc3)S(=O)(=O)c3cccc(Cl)c3F)CC2)cc1 (stereo not drawn) [Compound 46, [4-({[(3-chloro-2-fluorophenyl)sulfonyl]benzylamino}methyl)cyclohexyl]-N-[(4-methylphenyl)methyl]carboxamide] | 4.5 | – |
| Cc1ccc(CNC(=O)C2CCC(CN(Cc3ccccc3)S(=O)(=O)c3c(C)nn(C)c3C)CC2)cc1 (stereo not drawn) [Compound 47, N-[(4-methylphenyl)methyl][4-({benzyl[(1,3,5-trimethylpyrazol-4-yl)sulfonyl]amino}methyl)cyclohexyl]carboxamide] | 3.5 | – |
| Cc1ccc(CNC(=O)C2CCC(CN(Cc3ccccc3)S(=O)(=O)c3ccccc3F)CC2)cc1 (stereo not drawn) [Compound 21, [4-({[(2-fluorophenyl)sulfonyl]benzylamino}methyl)cyclohexyl]-N-[(4-methylphenyl)methyl]carboxamide] | 4.4 | – |
| Cc1ccc(CNC(=O)C2CCC(CN(Cc3ccccc3)S(=O)(=O)c3ccc(C)c(F)c3)CC2)cc1 (stereo not drawn) [Compound 39, [4-({[(3-fluoro-4-methylphenyl)sulfonyl]benzylamino}methyl)cyclohexyl]-N-[(4-methylphenyl)methyl]carboxamide] | 4 | – |
